Data: US5177078A, “Piperazine derivatives” (John Wyeth & Brother Limited, priority 1990, dated 1993)

Key:
5-HT1A receptor [1] = biological target: T1, 5-HT1A receptor (Rattus norvegicus, UniProt P19327); experiment: antagonism of 8-OH DPAT syndrome in the rat (5-HT1A receptor antagonism activity); format: in vivo
T1 construct: syndrome in the rat; from tissue; host or cells: living rat (endogenous receptor of the central nervous system)
T1 sequence (P19327 1-422): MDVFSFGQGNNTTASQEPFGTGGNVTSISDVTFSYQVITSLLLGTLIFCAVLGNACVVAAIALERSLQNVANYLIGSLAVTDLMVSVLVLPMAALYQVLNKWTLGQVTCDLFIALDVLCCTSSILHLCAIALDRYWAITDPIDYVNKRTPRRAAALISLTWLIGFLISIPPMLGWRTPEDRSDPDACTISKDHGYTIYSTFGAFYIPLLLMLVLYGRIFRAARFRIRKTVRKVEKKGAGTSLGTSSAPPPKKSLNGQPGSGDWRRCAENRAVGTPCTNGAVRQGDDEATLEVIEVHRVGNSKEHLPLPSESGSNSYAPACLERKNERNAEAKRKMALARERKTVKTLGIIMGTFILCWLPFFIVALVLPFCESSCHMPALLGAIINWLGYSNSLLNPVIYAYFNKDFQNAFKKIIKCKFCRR
Protocol: The compounds are tested for 5-HT1A receptor antagonism activity in a test involving the antagonism of 8-hydroxy-2-(di-n-propylamino)-tetralin (8-OH DPAT) syndrome in the rat. (R,S)-1-(2-Methoxyphenyl)-4-[2-(IH-imidazol-1-yl) -2-(phenyl)ethylpiperazine had MED of 1 mg/kg subcut and 10 mg/kg p.o when tested in this procedure.

5-HT1A receptor [2] = biological target: T1, 5-HT1A receptor; experiment: 5-HT1A receptor binding activity in rat hippocampal membrane homogenate; conditions: method of Alexander and Wood
Protocol: The compounds of the invention are tested for 5-HT1A receptor binding activity in rat hippocampal membrane homogenate by the method of B S Alexander and M D Wood, J Pharm Pharmacol, 1988, 40, 888-891.

## COc1ccccc1N1CCN(CC(c2ccccc2)n2ccnc2)CC1 (stereo not drawn) [Example 1, 1-(2-Methoxyphenyl)-4-[2-(1H-imidazol-1-yl)-2-(phenyl)ethyl]piperazine]
5-HT1A receptor [1]; p.o
  MED: 10 mg/kg
5-HT1A receptor [1]; subcut
  MED: 1 mg/kg
5-HT1A receptor [2]
  IC50: 15.8 nM
